This note sets out measurements from patent US20240132485A1, “HETEROCYCLIC CULLIN RING UBIQUITIN LIGASE COMPOUNDS AND USES THEREOF” (CEMM - FORSCHUNGSZENTRUM FÜR MOLEKULARE MEDIZIN GMBH, priority 2020, published 2024).

The test system of data set [1] is CUL4B_MUT KBM7 cells. The data set can be described thus: Cell viability assay (CellTiter Glo), CUL4B mutant KBM7 clone, 3-day treatment. Format: cell-based. Conditions: Homo sapiens, KBM-7, 72 h, CUL4B mutant KBM7, 3-day treatment, read-out: LC50 CUL4B_MUT. On the procedure:
(§1) KBM7^WT, UBE2M and CUL4B mutant KBM7 clones (UBE2M^mut and CUL4B^mut) were seeded at a cell density of 50,000 cells/mL in 96-well with DMSO or degraders Z1 to Z3, Z5 to Z7, Z9 to Z11, Z13 and Z14 in triplicates. Cells were treated for 3 days, after which a cell viability assay was performed (CellTiter Glo, Promega), according to manufacturer's protocol. Survival curves and IC50 values (LC50 values) were calculated by best-fit analysis of the log 10 drug concentration to fold change of drug-treated cells over DMSO-treated cells. All survival assays included technical triplicates per sample, per experiment.
(§2) Compounds, Z1 to Z3, Z5 to Z7, Z9 to Z11, Z13 and Z14, were tested for their antiproliferative effects in human leukemia cells (KBM7). These cells were either transduced with a control sgRNA (KBM7_WT), or with an sgRNA targeting UBE2M or CUL4B, leading to a hypomorph (deletion of six amino acids) with a functional impairment (UBE2M_MUT).
(§3) Indeed, 11 compounds Z1 to Z3, Z5 to Z7, Z9 to Z11, Z13 and Z14 were identified to fulfill these criteria and to stand out in terms of fold-change significance; see, e.g., FIG. 1 and Table 1. The dose ranging differential effect of these hits was assessed/validated, comparing their activity in KBM7_WT (KBM7^WT) vs UBE2_MUT and CUL4B_MUT cells (UBE2M^mut and CUL4B^mut).

The subject of data set [2] is UBE2M_MUT KBM7 cells. Nature of the data set: Cell viability assay (CellTiter Glo), UBE2M mutant KBM7 clone, 3-day treatment. Type of data set: cell-based. Conditions: Homo sapiens, KBM-7, 72 h, UBE2M mutant KBM7, 3-day treatment, read-out: LC50 UBE2M_MUT. The procedure: as §1, §2, §3
A general note: ATP-based viability assays read luminescence as a measure of living cells.

The subject of data set [3] is KBM7_WT cells. The data set can be described thus: Cell viability assay (CellTiter Glo), KBM7 wild-type, 3-day treatment. Type of data set: cell-based. To be noted: Homo sapiens, KBM-7, 72 h, read-out: LC50 KBM7_WT. On the procedure: as §1, §2, §3
Data set [4] concerns the target T1, DDB1-CDK12/Cyclin K ternary complex (Homo sapiens, UniProt Q16531+Q9NYV4).
T1 construct: expressed in transfected cells; host or cells: HEK293T wildtype cells, transient PEI transfection
The data set can be described thus: NanoBRET EC50 assay (HaloTag_CDK12 / NanoLuc_DDB1 in HEK293T). Format: cell-based. To be noted: for EC50: read-out: NanoBRET EC50 Activity Class. An outline of the steps: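 DDB1–CDK12/Cyclin K recruitment measured by NanoBRET in HEK293T transiently co-transfected with HaloTag_CDK12 and NanoLuc_DDB1 and labelled overnight with 100 nM HaloTag 618 ligand. Compounds titrated 10-point, 1:4 from 20 μM, 10 min at room temperature. Donor 460 nm and acceptor 647 nm emission read after Nano-Glo substrate.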
In general terms: In BRET a luciferase serves as donor, and the signal depends on an acceptor being close.

In data set [5] the target is T1, DDB1-CDK12/Cyclin K ternary complex. Nature of the data set: NanoBRET fold-change assay (HaloTag_CDK12 / NanoLuc_DDB1 in HEK293T). Type of data set: cell-based. To be noted: 10 μM compound, 10 minutes. An outline of the steps:
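HEK293T cells transiently co-transfected with HaloTag_CDK12 and NanoLuc_DDB1, labelled overnight with 100 nM HaloTag 618 ligand (DMSO no-ligand control), then treated with compound at 10 μM final for 10 min at room temperature. BRET read as 460 nm donor and 647 nm acceptor emission after Nano-Glo substrate; reported as fold change.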

Data set [6] relates to CCNK. The data set can be described thus: NanoLuc-CCNK degradation assay (HEK293T_Nluc_CCNK-tagged cells). Type of data set: cell-based. To be noted: for DC50: read-out: NanoLuc-CCNK degradation DC50 Activity Class. An outline of the steps:
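HEK293T cells with nanoluciferase knocked in at the N-terminus of endogenous CCNK (CRISPR) exposed to a 10-point titration (0 to 10 μM, 1:4) in Opti-MEM I + 4% FBS for 4 h. Nano-Glo substrate then added and luminescence read as a measure of Cyclin K abundance.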

The subject of data set [7] is KBM7 cells (wild-type). Nature of the data set: KBM7 CTG EC50 assay (UBE2M wild-type). Type of data set: cell-based, human. To be noted: for EC50: Homo sapiens, KBM-7, 72 h incubation, CellTiter-Glo, read-out: KBM7 CTG EC50 (UBE2M wild-type) Activity Class; for Ratio UBE2M WT to KO: ratio of anti-proliferative activity in KBM7 wild-type versus UBE2M knock-out cells (fold). An outline of the steps:
(§4)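 Wild-type KBM7 cells, or KBM7 cells with a hypomorphic UBE2M mutation that impairs Cullin-RING ligase activity, were treated for 72 h with compounds in a 10-point, 1:4 titration (0 to 20 μM). Viability was read by CellTiter-Glo 2.0 luminescence.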

Data set [8] has as its system KBM7 cells harboring a hypomorphic UBE2M mutation. Nature of the data set: KBM7 CTG EC50 assay (UBE2M knock-out). Format: cell-based. Conditions: Homo sapiens, KBM-7; 72 h incubation, CellTiter-Glo; read-out: KBM7 CTG EC50 (UBE2M knock-out) Activity Class. An outline of the steps: as §4
Where [9] appears, read: 10-point titration from 20 μM, HEK293T.
Where [10] appears, read: 4 h incubation, HEK293T_Nluc_CCNK-tagged cells.

T1 sequence (Q9NYV4 whole entry): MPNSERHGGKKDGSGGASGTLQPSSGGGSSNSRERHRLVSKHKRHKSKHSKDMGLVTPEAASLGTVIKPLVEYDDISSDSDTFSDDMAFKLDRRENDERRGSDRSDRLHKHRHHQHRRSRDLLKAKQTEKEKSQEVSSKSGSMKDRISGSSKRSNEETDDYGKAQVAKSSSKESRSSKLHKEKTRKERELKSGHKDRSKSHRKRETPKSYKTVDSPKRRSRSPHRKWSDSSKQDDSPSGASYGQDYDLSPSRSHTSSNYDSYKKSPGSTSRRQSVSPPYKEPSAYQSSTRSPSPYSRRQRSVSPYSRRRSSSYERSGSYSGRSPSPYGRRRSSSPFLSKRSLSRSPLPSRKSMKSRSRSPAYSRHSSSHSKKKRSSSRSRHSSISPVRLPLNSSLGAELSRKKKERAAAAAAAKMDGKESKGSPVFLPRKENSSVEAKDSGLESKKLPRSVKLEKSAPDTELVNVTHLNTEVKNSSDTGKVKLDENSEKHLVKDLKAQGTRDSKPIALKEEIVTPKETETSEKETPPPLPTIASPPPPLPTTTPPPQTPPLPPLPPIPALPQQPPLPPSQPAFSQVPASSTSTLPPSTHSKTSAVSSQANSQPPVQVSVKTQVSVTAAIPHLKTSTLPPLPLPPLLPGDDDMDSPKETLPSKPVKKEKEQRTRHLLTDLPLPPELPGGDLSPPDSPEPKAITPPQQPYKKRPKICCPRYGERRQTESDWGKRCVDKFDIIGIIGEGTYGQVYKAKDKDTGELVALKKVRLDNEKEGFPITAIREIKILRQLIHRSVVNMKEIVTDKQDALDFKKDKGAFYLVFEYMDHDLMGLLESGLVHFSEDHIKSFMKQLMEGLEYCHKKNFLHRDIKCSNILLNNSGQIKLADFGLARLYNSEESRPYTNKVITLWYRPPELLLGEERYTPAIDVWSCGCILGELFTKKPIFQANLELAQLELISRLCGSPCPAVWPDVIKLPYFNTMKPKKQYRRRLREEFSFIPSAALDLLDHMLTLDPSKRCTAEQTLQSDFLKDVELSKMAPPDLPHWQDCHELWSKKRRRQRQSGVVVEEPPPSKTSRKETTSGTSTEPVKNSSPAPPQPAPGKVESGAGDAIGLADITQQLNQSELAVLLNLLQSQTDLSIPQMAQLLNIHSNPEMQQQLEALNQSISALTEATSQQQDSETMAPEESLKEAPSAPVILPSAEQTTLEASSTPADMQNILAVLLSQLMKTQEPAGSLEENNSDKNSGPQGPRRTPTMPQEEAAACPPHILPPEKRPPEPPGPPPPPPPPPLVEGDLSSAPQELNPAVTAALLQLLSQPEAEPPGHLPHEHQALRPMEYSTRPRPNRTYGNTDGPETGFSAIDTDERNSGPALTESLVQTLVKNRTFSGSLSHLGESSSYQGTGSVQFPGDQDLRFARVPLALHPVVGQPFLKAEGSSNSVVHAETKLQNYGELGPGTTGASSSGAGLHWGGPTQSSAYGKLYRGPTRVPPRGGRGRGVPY
T1 sequence (Q16531 whole entry): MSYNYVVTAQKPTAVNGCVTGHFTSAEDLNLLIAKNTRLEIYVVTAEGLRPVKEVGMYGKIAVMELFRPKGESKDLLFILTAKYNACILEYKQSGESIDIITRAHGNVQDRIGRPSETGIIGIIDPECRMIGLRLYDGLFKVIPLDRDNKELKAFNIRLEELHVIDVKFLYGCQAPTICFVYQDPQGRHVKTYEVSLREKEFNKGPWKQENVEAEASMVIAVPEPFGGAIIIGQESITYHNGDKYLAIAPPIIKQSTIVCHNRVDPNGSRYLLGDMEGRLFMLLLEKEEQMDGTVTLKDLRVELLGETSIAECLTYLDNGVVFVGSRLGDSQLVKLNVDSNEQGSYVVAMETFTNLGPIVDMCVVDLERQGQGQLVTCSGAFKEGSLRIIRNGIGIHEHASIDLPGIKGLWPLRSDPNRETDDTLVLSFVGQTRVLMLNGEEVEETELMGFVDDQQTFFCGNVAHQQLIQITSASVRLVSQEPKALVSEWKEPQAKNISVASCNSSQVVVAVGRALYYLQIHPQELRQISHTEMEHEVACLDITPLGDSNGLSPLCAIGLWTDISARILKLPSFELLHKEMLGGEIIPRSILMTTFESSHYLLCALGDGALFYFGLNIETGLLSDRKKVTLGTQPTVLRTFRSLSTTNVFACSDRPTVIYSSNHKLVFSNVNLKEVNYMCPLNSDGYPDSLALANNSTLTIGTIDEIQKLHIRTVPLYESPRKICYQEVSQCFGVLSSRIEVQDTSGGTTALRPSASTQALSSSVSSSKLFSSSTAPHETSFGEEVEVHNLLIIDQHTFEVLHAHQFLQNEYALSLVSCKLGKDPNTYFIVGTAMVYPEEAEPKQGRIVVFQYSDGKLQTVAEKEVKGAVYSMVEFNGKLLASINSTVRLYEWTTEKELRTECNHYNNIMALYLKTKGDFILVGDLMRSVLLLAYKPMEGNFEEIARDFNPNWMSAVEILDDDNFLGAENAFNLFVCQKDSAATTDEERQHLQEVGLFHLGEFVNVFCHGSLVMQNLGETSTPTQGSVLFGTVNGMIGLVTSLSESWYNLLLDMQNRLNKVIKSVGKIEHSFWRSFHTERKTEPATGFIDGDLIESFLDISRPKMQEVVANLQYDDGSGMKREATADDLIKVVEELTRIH
T1 sequence (O75909 whole entry partner): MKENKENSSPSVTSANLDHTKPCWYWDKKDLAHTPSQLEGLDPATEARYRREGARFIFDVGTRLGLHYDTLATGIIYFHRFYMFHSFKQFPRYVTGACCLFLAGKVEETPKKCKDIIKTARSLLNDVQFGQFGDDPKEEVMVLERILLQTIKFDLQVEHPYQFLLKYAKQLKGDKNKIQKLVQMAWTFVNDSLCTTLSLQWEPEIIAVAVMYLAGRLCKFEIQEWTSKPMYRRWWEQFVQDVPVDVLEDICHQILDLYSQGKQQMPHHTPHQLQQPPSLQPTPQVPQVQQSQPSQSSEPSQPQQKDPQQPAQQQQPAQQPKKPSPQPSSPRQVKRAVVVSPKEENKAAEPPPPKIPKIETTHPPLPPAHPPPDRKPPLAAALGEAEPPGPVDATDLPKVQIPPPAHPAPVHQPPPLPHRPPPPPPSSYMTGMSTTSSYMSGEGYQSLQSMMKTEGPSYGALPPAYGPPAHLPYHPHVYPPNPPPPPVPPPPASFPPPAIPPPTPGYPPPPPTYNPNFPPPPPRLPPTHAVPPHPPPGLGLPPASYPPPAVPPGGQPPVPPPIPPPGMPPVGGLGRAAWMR

Regarding `O=C(Nc1nc2c(s1)CCCC2)C1CCCN1C(=O)c1ccccc1` (stereo not drawn) [Example Z3], the results for the CC50 in data set [1], in data set [2] and in data set [3] were over 10 µM, over 10 µM and 11.8 µM, respectively.
Regarding `O=C(CCn1cnc2ccccc2c1=O)Nc1ccc(Br)cn1` [Example Z7], the results for the CC50 in data set [1], in data set [2] and in data set [3] were over 10 µM, over 10 µM and 1.81 µM, respectively.
Take `COc1ccc2cc(C(C)C(=O)Nc3ncc(C)s3)ccc2c1` (stereo not drawn) [Example Z2]: the results for the CC50 in data set [1], in data set [2] and in data set [3] were over 10 µM, over 10 µM and 1.35 µM, respectively.
For the molecule `COc1ccc(C)cc1N1CC(C(=O)Nc2nc3ccccc3[nH]2)CC1=O` (stereo not drawn) [Example Z11], the CC50 in data set [1] was found to be 2 µM; in data set [2], 2.75 µM; in data set [3], 0.92 µM.
On to `Cc1ccc(NC(=O)C2CC(=O)N(c3cccc(Cl)c3)C2)nc1` (stereo not drawn) [Example Z9], for which the figures for the CC50 in data set [1], in data set [2] and in data set [3] were over 10 µM, over 10 µM and 2.35 µM, respectively.
`O=C(NCCCNc1ccc(C(F)(F)F)cn1)c1ccccc1` [Example Z14]: the values for the CC50 in data set [1], in data set [2] and in data set [3] were over 10 µM, over 10 µM and 4.69 µM, respectively.
In the case of `Cc1cnc(NC(=O)C2CC(=O)N(c3cccc(Cl)c3Cl)C2)s1` (stereo not drawn) [Example Z13], the CC50 in data set [1] was 5.68 µM; in data set [2], 6.99 µM; in data set [3], 1.29 µM.
`Cc1cn2nc(NCCNc3ccc(C#N)cn3)sc2n1` [Example Z5]: the CC50 is over 10 µM in data set [1], over 10 µM in data set [2] and 3.75 µM in data set [3].
Consider `Cc1ccc2c(CC(=O)Nc3nccs3)coc2c1C` [Example Z1], for which the values for the CC50 in data set [1], in data set [2] and in data set [3] were over 10 µM, over 10 µM and 7.12 µM, respectively.
With `O=C1CC(CNc2ncc(Cl)cn2)CN1CCc1ccccc1` (stereo not drawn) [Example Z10], the CC50 in data set [1] was over 10 µM; in data set [2], over 10 µM; in data set [3], 7.82 µM.
For `Cc1ccc2c(CC(=O)Nc3ccc(C4CC4)cn3)coc2c1C` [Example 3-52, N-(5-cyclopropylpyridin-2-yl)-2-(6,7-dimethylbenzofuran-3-yl)acetamide], the EC50 (usually the concentration that produces a half-maximal response) in data set [4] (setting [9]) is at most 0.25 µM; in data set [7] it was at most 0.25 µM; in data set [8] it was 1 to 10 µM. The “NanoBRET fold-change Activity Class” value in data set [5] is listed as “A (greater than 4-fold increase)”. Moreover, the “NanoLuc-CCNK degradation DC50 Activity Class” value in data set [6] (setting [10]) is on record as “B (0.50 μM≤DC50<0.10 μM)”. Besides, the “Ratio UBE2M WT to KO” value in data set [7] is 27.0.
In the case of `Cc1cc(N2CC(C(=O)Nc3ncc(C(F)(F)F)s3)CC2=O)ccc1F` (stereo not drawn) [Example 3-17, 1-(4-fluoro-3-methylphenyl)-5-oxo-N-(5-(trifluoromethyl)thiazol-2-yl)pyrrolidine-3-carboxamide], in data set [4] (setting [9]), the “NanoBRET EC50 Activity Class” value is “B (0.50 μM≤EC50≤0.25 μM)”. In addition, the “NanoBRET fold-change Activity Class” value in data set [5] is “A (greater than 4-fold increase)”. Also, the DC50 (commonly the midpoint of the concentration-degradation curve) in data set [6] (setting [10]) is at most 0.1 µM. In data set [7], the EC50 is at most 0.25 µM and the “Ratio UBE2M WT to KO” value was found to be 17.0. The EC50 in data set [8] was 0.25 to 0.5 µM.
Take `Cc1cc(NC(C)C(=O)Nc2ccc(Cl)cn2)ccc1Br` (stereo not drawn) [Example Z6]: the values for the CC50 in data set [1], in data set [2] and in data set [3] were 6.06 µM, 6.8 µM and 1.57 µM, respectively.
In the case of `O=C(Cc1cn2cc(Cl)ccc2n1)Nc1cc(C2CC2)[nH]n1` [Example 3-66, N-(5-cyclopropyl-1H-pyrazol-3-yl)-2-(6-chloroimidazo[1,2-a]pyridin-2-yl)acetamide], the “activity in NanoBRET assay (ternary complex formation), in words” value in data set [4] is recorded as “particularly exceptional”. For the same molecule, the EC50 in data set [4] (setting [9]), in data set [7] and in data set [8] was at most 0.25 µM in each case. Also, the “NanoBRET fold-change Activity Class” value in data set [5] was “A (greater than 4-fold increase)”. Besides, the “activity in NanoLuc CCNK degradation assay, in words” value in data set [6] is “particularly exceptional”. Moreover, the DC50 in data set [6] (setting [10]) was at most 0.1 µM. The “dependence of cytotoxicity on UBE2M, in words” value in data set [7] (KBM7 wild-type versus UBE2M mutant) is listed as “very strong dependence”. Besides, the “Ratio UBE2M WT to KO” value in data set [7] was 388.0.
